Experimental data: patent publication US20250282746A1, “HALOGEN-SUBSTITUTED ISOINDOLINE COMPOUND AND USE THEREOF” (CHENGDU FENDI PHARMACEUTICAL CO., LTD., priority 2022, published 2025)
“Also recorded” adds a separate entry of the source.

Assays:
MV-4-11 cells [1] = experiment: Antiproliferative activity against MV-4-11 cells (CellTiter-Glo, 72 h); assay type: cell-based; details: Homo sapiens, MV4-11; MV-4-11 cells, 72 h; read-out: Antiproliferative activity IC50
Method in brief: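 MV-4-11 cells in RPMI + 10% FBS plated at 5,000 cells/well and pre-incubated 24 h at 37 °C, 5% CO2. Compounds were then added (final DMSO 0.2%) and cells incubated 72 h. Viability was read by CellTiter-Glo luminescence after 30 min equilibration at room temperature.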

MV-4-11 cells [2] = experiment: Apoptotic effect on AML cells (annexin/PI flow cytometry); assay type: cell-based, human; details: 1 μM and 100 nM
Description: MV-4-11 cells in the logarithmic growth phase were diluted in a growth medium and plated at 600,000 cells/well in 6-well plates with 2 mL/well and the compounds were added. The cells were collected, washed twice with pre-cooled PBS, and resuspended in 100 μL of 1× annexin-binding buffer. 5 μL of FITC and 1 μL of 100 µg/mL PI were added. The cells were incubated at room temperature in the dark for 15 min and transferred on ice, and 400 μL of 1× annexin-binding buffer was added. The mixture was gently mixed and subjected to flow cytometry.

U937 cells = experiment: Antiproliferative activity against various tumor cells: U937; assay type: cell-based; details: Homo sapiens, U-937; U937 cells, 72 h; read-out: Antiproliferative activity IC50 U937
Description: (§1) U937, NCI-H929, AML-2, and MOLM-13 cells in the logarithmic growth phase were diluted in media RPMI+10% FBS, RPMI+10% FBS, MEMα+20% FBS, RPMI+20% FBS, respectively, and plated at 4,000 cells/well in 96-well whole black plates (WHB) with 50 μL/well. After plating, the plates were incubated in an incubator at 5% CO2 and 37° C. for 24 h before the compounds were added. The compounds were prepared into a 10 mM stock solution in DMSO and diluted in a culture medium to the desired concentrations (a final DMSO concentration of 0.2%). […] The plates were incubated at 5% CO2 and 37° C. for 72 h. After the incubation was complete, the plates were equilibrated at room temperature for 30 min. CellTiter-Glo® Reagent (Promega G7573) was added at 100 μL/well. The plates were shaken for 12 min on a microplate shaker. The luminescence value was measured at room temperature by the GloMax navigator (Promega GM2010).

NCI-H929 cells [3] = experiment: Antiproliferative activity against various tumor cells: NCI-H929; assay type: cell-based; details: Homo sapiens; NCI-H929 cells, 72 h; read-out: Antiproliferative activity IC50 NCI-H929
Description: as §1

MV-4-11-Luc xenograft = experiment: Efficacy in acute myeloid leukemia MV-4-11-luc xenograft mouse model; assay type: in vivo; details: for T/C (%) Day 3 / T/C (%) Day 7 / T/C (%) Day 10 / T/C (%) Day 14: 10 mg/kg orally twice daily, NSG mice
Excerpt: In an in vivo efficacy study, female immunocompromised NSG mice aged 6 to 8 weeks were used and the experimental procedures started after the animals were acclimatized in the experimental environment for 7 days. The animals were housed in SPF animal rooms in individually ventilated cages (IVCs) each containing 6 mice. Human acute myeloid leukemia MV-4-11 cells expressing luciferase (MV-4-11-luc) were grafted into mice by tail vein injection (5×10^6 cells/mouse). Seven days after the cell grafting, the mice were subjected to imaging on the IVIS Lumina III small animal imaging system for grouping and administration, and tumor-bearing mice were randomized to the vehicle control group or treatment groups (6 mice/group). The compound (10 mg/kg, twice daily) was administered to the animals in each treatment group by oral gavage. The body weight was measured daily, while mean luminescence was measured after the start of treatment with the compounds or vehicle.
Indicators: The indicators were to investigate whether the tumor growth was inhibited or delayed or the tumor was cured. The tumor size was measured twice weekly using the IVIS Lumina III small animal imaging system. The tumor signals were determined by exposure photons per second. The anti-tumor efficacy of the compounds was evaluated by the tumor proliferation rate T/C (%). T/C %=TRTV/CRTV×100% (TRTV: the RTV of the treatment group; CRTV: the RTV of negative control group; RTV=Vt/V0, where V0 is the tumor signal measured at the time of grouping and administration (i.e., day 0), and Vt is the tumor signal at every measurement). According to the guidelines of the Center for Drug Evaluation, NMPA, a T/C (%) of >40% denotes the absence of efficacy, while a T/C of <40% with P<0.05 denotes the presence of efficacy.

hERG potassium channel = target: T1, hERG potassium channel (Homo sapiens, UniProt Q12809); experiment: hERG inhibition assay (automated patch clamp, HEK293); assay type: cell-based; details: 3 μM, HEK293 cells, QPatch
T1 construct: expressed in transfected cells; host or cells: HEK293 cells
Excerpt: The rapidly activating potassium channel encoded by human ether-a-go-go-related gene (hERG) is an important ion channel involved in the formation of cardiac action potential phase 3 repolarization. Blocking of the hERG channel by drugs can lead to the prolongation of cardiac repolarization and thus a prolonged QT interval in the electrocardiogram, known as long QT syndrome. Drug-induced delayed ventricular repolarization may in some cases trigger fatal arrhythmia-torsade de pointes-type ventricular tachycardia.
This assay was used to measure the effect of compounds on the hERG potassium channel clones expressed in human embryonic kidney (HEK293) cells. The assay procedures are as follows: the cells were transferred into a HEPES-buffered saline in glass-lined 96-well plates and exposed to an appropriate amount of test compound or control solution at various concentrations for 3 min. The test compounds were diluted in 0.3% DMSO.

MOLM-13 cells [4] = experiment: Antiproliferative activity against various tumor cells: MOLM-13; assay type: cell-based; details: Homo sapiens; MOLM-13 cells, 72 h; read-out: Antiproliferative activity IC50 MOLM-13
Description: as §1

AML-2 cells = experiment: Antiproliferative activity against various tumor cells: AML-2; assay type: cell-based; details: AML-2 cells, 72 h; read-out: Antiproliferative activity IC50 AML-2
Description: as §1

GSPT1 protein = target: T2, GSPT1 protein (Homo sapiens, UniProt P15170); experiment: Degradation of GSPT1 protein in NB-4 cells (Western blot); assay type: cell-based; details: NB-4 cells, compound 1 μM, 6 h; read-out: GSPT1 degradation
T2 construct: The whole cell lysate was prepared using a RIPA lysis buffer; endogenous in cells; host or cells: NB-4 cells
Method in brief: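 NB-4 cells treated with compounds at 1 μM for 6 h at 37 °C, 5% CO2, with DMSO control. RIPA whole-cell lysates, BCA-normalized, were run on 4-20% SDS-PAGE and immunoblotted for GSPT1 protein.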

NCI-H929 cells [5] = experiment: Antiproliferative effect alone and in combination with dexamethasone against NCI-H929 cells; assay type: cell-based; details: 72 h, read-out: IC50
Description: (§2) MOLM-13 cells in the logarithmic growth phase were diluted in a medium RPMI+[…], and NCI-H929 cells were diluted in a medium RPMI+10% FBS. The cells were plated at 4,000 cells/well in 96-well whole black plates (WHB) with 50 μL/well. After plating, the plates were incubated in an incubator at 5% CO2 and 37° C. for 24 h before the compounds were added. The compounds were prepared into a 10 mM stock solution in DMSO and diluted in a culture medium to the desired concentrations (a final DMSO concentration of 0.2%). 50 μL of the compound dilutions at final concentrations of 10,000, 3,333.33, 1,111.11, 370.37, 123.46, 41.15, 13.72, 4.57, 1.52, and 0 nM were added to the 96-well plates containing the cells, that is, each compound was serially diluted to 10 concentrations in duplicate. The plates were incubated at 5% CO2 and 37° C. for 72 h. When pharmaceutical partners were used, the concentrations of azacitidine and dexamethasone were kept at 200 nM and 500 nM respectively, and the compounds were serially three-fold diluted from 10,000 nM. After the incubation was complete, the plates were equilibrated at room temperature for 30 min. CellTiter-Glo® Reagent (Promega G7573) was added at 100 μL/well. The plates were shaken for 12 min on a microplate shaker. The luminescence value was measured at room temperature by the GloMax navigator (Promega GM2010). The IC50 values were calculated using the GraphPad Prism 7 software with the 0 nM control group as 0% inhibition.

MOLM-13 cells [6] = experiment: Antiproliferative effect alone and in combination with azacitidine against MOLM-13 cells; assay type: cell-based; details: MOLM-13 cells, 72 h
Description: as §2

T1 sequence (Q12809 whole entry): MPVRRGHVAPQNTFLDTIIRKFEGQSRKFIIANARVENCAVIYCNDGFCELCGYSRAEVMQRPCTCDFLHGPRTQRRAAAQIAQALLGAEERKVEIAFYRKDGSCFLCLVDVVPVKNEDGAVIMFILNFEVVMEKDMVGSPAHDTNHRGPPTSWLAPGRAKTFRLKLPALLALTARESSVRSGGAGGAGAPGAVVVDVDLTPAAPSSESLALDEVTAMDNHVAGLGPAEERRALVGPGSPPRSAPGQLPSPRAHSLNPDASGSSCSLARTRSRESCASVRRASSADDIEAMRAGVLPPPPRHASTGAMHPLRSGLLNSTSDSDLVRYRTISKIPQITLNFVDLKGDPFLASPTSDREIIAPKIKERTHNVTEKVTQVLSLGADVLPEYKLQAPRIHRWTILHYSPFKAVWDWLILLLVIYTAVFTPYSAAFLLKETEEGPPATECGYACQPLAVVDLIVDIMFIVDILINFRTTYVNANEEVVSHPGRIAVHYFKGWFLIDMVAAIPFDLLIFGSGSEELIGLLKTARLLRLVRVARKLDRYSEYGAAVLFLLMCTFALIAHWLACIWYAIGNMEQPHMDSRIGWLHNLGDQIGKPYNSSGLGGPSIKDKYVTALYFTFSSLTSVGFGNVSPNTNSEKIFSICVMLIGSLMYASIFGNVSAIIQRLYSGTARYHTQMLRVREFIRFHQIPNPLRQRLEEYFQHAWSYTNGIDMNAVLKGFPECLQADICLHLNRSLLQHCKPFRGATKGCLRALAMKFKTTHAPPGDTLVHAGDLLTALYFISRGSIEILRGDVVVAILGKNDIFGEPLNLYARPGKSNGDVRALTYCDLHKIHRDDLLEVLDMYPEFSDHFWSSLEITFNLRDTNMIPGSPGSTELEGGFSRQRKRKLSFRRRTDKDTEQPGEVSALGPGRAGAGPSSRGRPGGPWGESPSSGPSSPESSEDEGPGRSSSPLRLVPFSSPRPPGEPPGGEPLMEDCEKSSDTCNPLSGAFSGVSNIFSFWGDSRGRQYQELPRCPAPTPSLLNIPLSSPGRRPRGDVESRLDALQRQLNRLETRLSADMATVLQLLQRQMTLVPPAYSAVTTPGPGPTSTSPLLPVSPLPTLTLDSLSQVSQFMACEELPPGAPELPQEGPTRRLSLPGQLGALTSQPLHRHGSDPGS
T2 sequence (P15170 whole entry): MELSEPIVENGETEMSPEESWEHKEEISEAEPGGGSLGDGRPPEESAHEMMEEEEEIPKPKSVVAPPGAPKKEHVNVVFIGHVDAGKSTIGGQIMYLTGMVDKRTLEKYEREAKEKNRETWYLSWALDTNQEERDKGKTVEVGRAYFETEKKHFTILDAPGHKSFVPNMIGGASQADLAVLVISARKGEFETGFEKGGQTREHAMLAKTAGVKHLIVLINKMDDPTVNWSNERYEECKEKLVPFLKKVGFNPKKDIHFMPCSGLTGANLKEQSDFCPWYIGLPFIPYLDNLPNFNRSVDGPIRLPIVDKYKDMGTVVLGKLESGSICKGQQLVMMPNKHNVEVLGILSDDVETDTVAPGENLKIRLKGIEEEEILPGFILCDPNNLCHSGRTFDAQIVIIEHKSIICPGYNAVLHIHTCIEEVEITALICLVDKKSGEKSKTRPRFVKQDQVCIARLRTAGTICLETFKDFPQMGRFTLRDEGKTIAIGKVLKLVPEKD

In the case of `Cc1ccc(C(=O)NCc2ccc3c(c2F)CN(C2CCC(=O)NC2=O)C3=O)cc1` (centres unmarked) [FDAB-65], the IC50 (MV-4-11 cells [1]) is reported as 10 to 100 nM, the “apoptotic effect on MV-4-11 cells” value (MV-4-11 cells [2]; treated for 7 h, 10 µM) is reported as “no apoptotic effect” and the “apoptotic effect on MV-4-11 cells” value (MV-4-11 cells [2]; treated for 16 h) is reported as “apoptosis was induced”. For the same compound, the IC50 (U937 cells) was 10 to 100 nM, the IC50 (NCI-H929 cells [3]) was 1 to 10 nM and the “T/C (%) Day 3” value (MV-4-11-Luc xenograft) was 4.58%. For the same compound, the “T/C (%) Day 7” value (MV-4-11-Luc xenograft) was 1.40%, the “T/C (%) Day 10” value (MV-4-11-Luc xenograft) was 1.01% and the “T/C (%) Day 14” value (MV-4-11-Luc xenograft) was 0.78%. It also gave a hERG inhibition rate (hERG potassium channel) of 11%, an IC50 (MOLM-13 cells [4]) of 100 to 1000 nM and an IC50 (AML-2 cells) of 100 to 1000 nM. For the same compound, the inhibition at 1 µM (GSPT1 protein) was > 80%.

Work on `O=C1CCC(N2Cc3cc(CNC(=O)C(F)(F)c4ccc(Cl)cc4)ccc3C2=O)C(=O)N1` (centres unmarked) [CC-90009, reference compound] yielded an IC50 (NCI-H929 cells [5]; compound alone) of 3200 nM, an IC50 (NCI-H929 cells [5]; in combination with 500 nM dexamethasone) of 77.3 nM and an IC50 (MOLM-13 cells [6]; compound alone) of 1420 nM. For the same compound, the IC50 (MOLM-13 cells [6]; in combination with 200 nM azacitidine) was 43.9 nM, the “T/C (%) Day 3” value (MV-4-11-Luc xenograft) was 100.80% and the “T/C (%) Day 7” value (MV-4-11-Luc xenograft) was 133.08%. The “T/C (%) Day 10” value (MV-4-11-Luc xenograft) was 127.05%, the “T/C (%) Day 14” value (MV-4-11-Luc xenograft) was 132.90% and the “tumor inhibitory effect in mouse xenograft model” value (MV-4-11-Luc xenograft; oral administration, 10 mg/kg twice daily, within 14 days, 10 mg/kg) was “no tumor inhibitory effects; also recorded: no tumor inhibitory activity”. For the same compound, the hERG inhibition rate (hERG potassium channel) was 66%.

`O=C1CCC(N2Cc3c(ccc(CNC(=O)c4cc5cc(F)ccc5o4)c3F)C2=O)C(=O)N1` (centres unmarked) [FDAB-46] was tested, and the IC50 (MV-4-11 cells [1]) was 1 to 10 nM, the “apoptotic effect on MV-4-11 cells” value (MV-4-11 cells [2]; treated for 7 h, 10 µM) was “no apoptotic effect” and the “apoptotic effect on MV-4-11 cells” value (MV-4-11 cells [2]; treated for 16 h) was “apoptosis was induced”. It also gave an IC50 (U937 cells) of 10 to 100 nM, an IC50 (NCI-H929 cells [3]) of 1 to 10 nM and an IC50 (MOLM-13 cells [4]) of 100 to 1000 nM. The IC50 (AML-2 cells) was 100 to 1000 nM and the inhibition at 1 µM (GSPT1 protein) was > 80%.

With `Cc1ccc(C(=O)NCc2ccc3c(c2F)CN(C2CCC(=O)NC2=O)C3=O)cc1F` (centres unmarked) [FDAB-120] the IC50 (MV-4-11 cells [1]) was 10 to 100 nM, the “T/C (%) Day 3” value (MV-4-11-Luc xenograft) was 6.69% and the “T/C (%) Day 7” value (MV-4-11-Luc xenograft) was 1.58%. The “T/C (%) Day 10” value (MV-4-11-Luc xenograft) was 2.00%, the “T/C (%) Day 14” value (MV-4-11-Luc xenograft) was 2.12% and the hERG inhibition rate (hERG potassium channel) was 13%. The inhibition at 1 µM (GSPT1 protein) was > 80%.
